Test [1] deals with T1, Dipeptidyl peptidase 4 (Homo sapiens, UniProt P27487). The experiment in a line: Inhibition of human recombinant DPP4 using H-Gly-Pro-AMC as substrate incubated for 10 mins by microplate reader analysis.
Test [2] deals with T1, Dipeptidyl peptidase 4. The experiment in a line: Inhibition of DPP4 (unknown origin) using Gly-Pro-AMC as substrate incubated for 20 mins by spectroscopic analysis.
The target of test [3] is T2, Tyrosine-protein phosphatase non-receptor type 2 (Homo sapiens, UniProt P17706).
T2 sequence (P17706 whole entry): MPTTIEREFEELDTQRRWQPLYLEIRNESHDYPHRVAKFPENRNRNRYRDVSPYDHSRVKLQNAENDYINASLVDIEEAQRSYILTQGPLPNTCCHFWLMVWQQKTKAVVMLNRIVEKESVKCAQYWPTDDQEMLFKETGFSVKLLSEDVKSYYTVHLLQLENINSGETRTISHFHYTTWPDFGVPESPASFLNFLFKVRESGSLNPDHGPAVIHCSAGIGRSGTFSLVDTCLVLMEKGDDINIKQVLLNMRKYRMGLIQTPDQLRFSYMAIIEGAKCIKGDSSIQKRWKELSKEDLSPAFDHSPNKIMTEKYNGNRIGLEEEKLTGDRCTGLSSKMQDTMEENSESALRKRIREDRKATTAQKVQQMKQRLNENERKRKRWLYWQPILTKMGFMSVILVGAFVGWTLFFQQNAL
The experiment in a line: Inhibition of TC-PTP (unknown origin) using pNPP as substrate incubated for 5 mins by absorbance based analysis.

The next test is filed under the species Homo sapiens. The experiment in a line: Selectivity ratio of IC50 for inhibition of PTP1B (unknown origin) to IC50 for inhibition of TC-PTP (unknown origin).
Test [4] concerns the target T1, Dipeptidyl peptidase 4. The experiment in a line: Inhibition of DPP4 (unknown origin).
The target of test [5] is T3, Tyrosine-protein phosphatase non-receptor type 1 (Homo sapiens, UniProt P18031).
T3 sequence (P18031 whole entry): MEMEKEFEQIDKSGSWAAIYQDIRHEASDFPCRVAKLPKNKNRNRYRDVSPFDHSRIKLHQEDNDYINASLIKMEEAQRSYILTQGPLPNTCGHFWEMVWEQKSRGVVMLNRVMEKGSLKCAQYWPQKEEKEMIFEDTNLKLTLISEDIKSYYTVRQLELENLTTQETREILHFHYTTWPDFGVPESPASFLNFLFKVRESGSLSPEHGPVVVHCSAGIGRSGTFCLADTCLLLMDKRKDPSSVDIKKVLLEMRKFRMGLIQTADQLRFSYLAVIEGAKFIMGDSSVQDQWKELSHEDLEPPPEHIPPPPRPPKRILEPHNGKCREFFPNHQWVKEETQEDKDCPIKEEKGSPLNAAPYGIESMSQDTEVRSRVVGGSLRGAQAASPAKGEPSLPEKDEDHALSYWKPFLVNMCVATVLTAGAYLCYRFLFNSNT
The experiment in a line: Inhibition of PTP1B (unknown origin).

The target of the next test is Glucagon receptor (Rattus norvegicus, UniProt P30082). The experiment in a line: Displacement of [125I]-glucagon from GCGR in Sprague-Dawley rat liver assessed as decrease in glucagon-stimulated CAMP production incubated for 45 mins by scintillation counter analysis. The class given is tissue-based. In general terms: In a radioligand displacement assay an active substance lowers the binding of a labelled ligand.
Glucagon receptor, sequence (P30082 whole entry): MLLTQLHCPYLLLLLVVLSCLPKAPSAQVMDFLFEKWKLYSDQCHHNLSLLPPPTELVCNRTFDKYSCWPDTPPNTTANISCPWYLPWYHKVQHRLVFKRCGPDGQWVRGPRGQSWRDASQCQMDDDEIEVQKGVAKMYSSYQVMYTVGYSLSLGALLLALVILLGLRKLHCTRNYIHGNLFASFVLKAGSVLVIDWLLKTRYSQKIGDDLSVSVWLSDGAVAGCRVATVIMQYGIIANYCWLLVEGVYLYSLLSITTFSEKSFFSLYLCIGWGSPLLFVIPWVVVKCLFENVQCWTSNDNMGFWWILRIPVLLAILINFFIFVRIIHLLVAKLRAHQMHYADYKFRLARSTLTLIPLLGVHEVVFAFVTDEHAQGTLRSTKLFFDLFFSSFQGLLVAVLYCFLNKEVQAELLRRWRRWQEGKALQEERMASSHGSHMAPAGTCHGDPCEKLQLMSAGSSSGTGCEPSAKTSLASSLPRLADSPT

The target in test [6] is T4, Alpha-glucosidase (Saccharomyces cerevisiae S288c) (UniProt P53341+P38158+P07265). The experiment in a line: Inhibition of Saccharomyces cerevisiae alpha-glucosidase assessed as dissociation rate constant (k2) using p-nitrophenol-alpha-D-glucopyranoside as substrate by Lineweaver-Burk plot analysis. The class given is protein assay.
Test [7] concerns the target T4, Alpha-glucosidase (Saccharomyces cerevisiae S288c). The experiment in a line: Inhibition of Saccharomyces cerevisiae alpha-glucosidase assessed as dissociation rate constant (k1) using p-nitrophenol-alpha-D-glucopyranoside as substrate by Lineweaver-Burk plot analysis. The class given is protein assay.
The target of a further test is Alpha-glucosidase (Saccharomyces cerevisiae S288c, UniProt P53341+P38158+P07265). The experiment in a line: Inhibition of Saccharomyces cerevisiae alpha-glucosidase using p-nitrophenol-alpha-D-glucopyranoside as substrate incubated for 15 mins by spectrophotometric method. The class given is protein assay.
Test [8] has as its target T5, Fructose-1,6-bisphosphatase 1 (Homo sapiens, UniProt P09467).
T5 sequence (P09467 whole entry): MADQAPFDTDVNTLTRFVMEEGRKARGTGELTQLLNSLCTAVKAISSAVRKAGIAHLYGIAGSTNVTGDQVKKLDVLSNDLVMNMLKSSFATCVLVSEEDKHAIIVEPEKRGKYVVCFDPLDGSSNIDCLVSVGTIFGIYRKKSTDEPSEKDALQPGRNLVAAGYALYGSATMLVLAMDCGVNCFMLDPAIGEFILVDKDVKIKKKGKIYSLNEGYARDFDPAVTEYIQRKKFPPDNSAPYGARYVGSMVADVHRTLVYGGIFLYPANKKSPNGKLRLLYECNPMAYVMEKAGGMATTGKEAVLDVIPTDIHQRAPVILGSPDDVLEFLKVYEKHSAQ
The experiment in a line: Inhibition of FBPase (unknown origin).

Test [9] can be described thus: Inhibition of Calf ALR2 in presence of NADPH by UV spectrophotometric analysis. On the set-up: species or system Bos taurus.
Test [10] in a line: Inhibition of bovine kidney ALR1 in presence of NADPH by UV spectrophotometric analysis. The class given is tissue-based, Bos taurus.
Test [11] deals with T6, Free fatty acid receptor 4 (Homo sapiens, UniProt Q5NUL3).
T6 sequence (Q5NUL3 whole entry): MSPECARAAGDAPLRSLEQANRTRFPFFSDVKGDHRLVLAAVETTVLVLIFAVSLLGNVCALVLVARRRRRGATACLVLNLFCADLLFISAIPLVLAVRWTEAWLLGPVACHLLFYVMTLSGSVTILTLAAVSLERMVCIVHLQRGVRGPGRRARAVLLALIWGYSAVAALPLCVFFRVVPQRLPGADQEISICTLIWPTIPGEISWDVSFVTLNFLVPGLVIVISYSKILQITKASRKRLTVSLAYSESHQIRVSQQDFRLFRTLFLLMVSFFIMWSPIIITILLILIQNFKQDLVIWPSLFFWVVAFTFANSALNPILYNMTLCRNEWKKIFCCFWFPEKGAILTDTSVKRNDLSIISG
The experiment in a line: Agonist activity at human GPR120 expressed in CHO cells assessed as intracellular phosphorylated ERK incubated for 16 to 18 hrs by AlphaScreen SureFire assay. It is filed as cell-based.

Test [12] concerns the target T7, Free fatty acid receptor 4 (Mus musculus) (UniProt Q7TMA4).
T7 sequence (whole entry): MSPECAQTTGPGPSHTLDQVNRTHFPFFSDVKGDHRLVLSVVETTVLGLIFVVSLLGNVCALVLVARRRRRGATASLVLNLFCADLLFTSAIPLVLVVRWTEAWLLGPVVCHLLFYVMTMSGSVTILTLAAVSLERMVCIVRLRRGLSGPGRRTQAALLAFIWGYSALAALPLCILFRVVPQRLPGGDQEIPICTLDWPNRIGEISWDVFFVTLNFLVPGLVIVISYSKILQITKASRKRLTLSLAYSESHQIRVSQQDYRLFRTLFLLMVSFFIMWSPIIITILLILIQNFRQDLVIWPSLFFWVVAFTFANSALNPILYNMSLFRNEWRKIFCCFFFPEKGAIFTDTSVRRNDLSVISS
The experiment in a line: In vivo agonist activity at GPR120 in C57BL/6 mouse assessed as reduction in glucose AUC levels at 30 mg/kg,po and measured upto 120 mins by OGTT test. It is filed as functional, organism-based. On the set-up: scale not given: the % may be the effect or the level left.

Test [13] concerns the target T8, Fructose-1,6-bisphosphatase 1 (Rattus norvegicus) (UniProt P19112).
T8 sequence (whole entry): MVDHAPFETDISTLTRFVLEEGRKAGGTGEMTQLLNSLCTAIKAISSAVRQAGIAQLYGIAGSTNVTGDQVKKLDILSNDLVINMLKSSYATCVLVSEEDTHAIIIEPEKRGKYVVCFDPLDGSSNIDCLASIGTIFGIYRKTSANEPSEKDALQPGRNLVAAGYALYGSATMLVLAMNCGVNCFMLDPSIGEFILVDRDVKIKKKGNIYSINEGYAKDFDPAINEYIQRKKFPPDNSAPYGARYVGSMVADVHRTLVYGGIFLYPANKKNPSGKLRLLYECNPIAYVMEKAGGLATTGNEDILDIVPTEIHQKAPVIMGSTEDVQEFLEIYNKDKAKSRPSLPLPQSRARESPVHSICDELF
The experiment in a line: Inhibition of FBPase in rat Primary hepatocyte assessed as reduction in glucose production at 160 uM. The class given is cell-based.

For test [14], the target named is T9, Fructose-1,6-bisphosphatase 1 (Rattus norvegicus, UniProt P19112).
T9 sequence (P19112 whole entry): T8 sequence (whole entry)
The experiment in a line: Inhibition of FBPase in rat Primary hepatocyte assessed as reduction in glucose production. The class given is cell-based.

Molecules are shown by their SMILES.

A word on the IC50: it is the midpoint of a concentration-inhibition curve. What is called EC50 is the concentration needed to bring the measured effect to its halfway point. In general, inhibition refers to how much of the control response was suppressed.

T1 sequence (P27487 whole entry): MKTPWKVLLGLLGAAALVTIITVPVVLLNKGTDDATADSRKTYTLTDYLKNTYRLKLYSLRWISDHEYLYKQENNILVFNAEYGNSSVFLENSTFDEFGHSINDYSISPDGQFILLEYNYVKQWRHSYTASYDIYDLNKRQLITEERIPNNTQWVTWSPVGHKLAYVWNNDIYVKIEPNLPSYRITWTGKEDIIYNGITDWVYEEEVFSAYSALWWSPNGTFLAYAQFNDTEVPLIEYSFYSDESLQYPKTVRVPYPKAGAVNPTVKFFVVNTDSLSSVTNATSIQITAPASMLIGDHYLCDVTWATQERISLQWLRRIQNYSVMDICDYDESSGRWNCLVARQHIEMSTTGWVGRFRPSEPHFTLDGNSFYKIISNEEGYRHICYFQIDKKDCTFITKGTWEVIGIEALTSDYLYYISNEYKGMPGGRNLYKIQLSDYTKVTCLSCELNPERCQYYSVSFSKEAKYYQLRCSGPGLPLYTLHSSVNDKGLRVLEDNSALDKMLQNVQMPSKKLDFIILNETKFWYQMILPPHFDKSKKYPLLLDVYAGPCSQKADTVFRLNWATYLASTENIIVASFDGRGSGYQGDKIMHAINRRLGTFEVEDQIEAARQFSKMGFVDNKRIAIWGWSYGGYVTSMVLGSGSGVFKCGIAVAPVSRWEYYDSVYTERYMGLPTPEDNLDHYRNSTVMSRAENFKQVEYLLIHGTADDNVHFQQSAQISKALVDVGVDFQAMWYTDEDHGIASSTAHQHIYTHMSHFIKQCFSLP

On to `NNc1nc(NN)nc(N2C(=O)CSC2=O)n1`, for which the IC50 at Dipeptidyl peptidase 4 [1] was 6250 nM.

Consider `O=C(CNc1nc(Nc2ccc(S(=O)(=O)Nc3nccs3)cc2)nc(N2CCOCC2)n1)Nc1ccc(F)cc1`, for which half-maximal inhibition at Dipeptidyl peptidase 4 [2] (IC50) was put at 2.32 nM.

As for `O=C(c1cccc(CN2CCCN(Cc3cccc(C(=O)C(F)(F)P(=O)(O)O)c3)CCN(Cc3cccc(C(=O)C(F)(F)P(=O)(O)O)c3)CCCN(Cc3cccc(C(=O)C(F)(F)P(=O)(O)O)c3)CC2)c1)C(F)(F)P(=O)(O)O`, the IC50 in test [3] is 75 nM. Further, the Ratio IC50 in the test filed under Homo sapiens was found to be 14.

At Dipeptidyl peptidase 4 [4], `CC#CCn1c(N2CCC[C@@H](N)C2)cc(=O)n(Cc2nc(C)c3cc(C)ccc3n2)c1=O` displayed an IC50 of 5.78 nM.

In test [5], `Cc1cc(OCc2ccc(C(=O)O)cc2)ccc1/C=C1\SC(=S)N(Cc2ccc(C(=O)O)cc2)C1=O` registered an IC50 of 240 nM.

In the case of `CC#CCn1c(N2CCC[C@@H](N)C2)nc2c(C)c(=O)n(Cc3nc(C)c4c(Cl)cccc4n3)c(=O)n21`, on Dipeptidyl peptidase 4 [4], the IC50 is 0.7 nM.

`CCCc1c(C(C)C)cc(C(C)C)c([C@@H](C)O)c1-c1ccc(F)cc1`: at Glucagon receptor, the IC50 stood at 110 nM.

For the compound `Cc1cc2c(c(=O)[nH]1)C(=O)O/C2=C\c1cc(Br)cs1`, the Kdiss in [6] was determined as 0.25 µM; in test [7], 0.22 µM. In addition, the IC50 on Alpha-glucosidase turned out to be 240 nM.

With `Cc1ccc(-c2nnc(-c3cccc(NC(=O)CCCCCCO)c3)o2)cc1`, the IC50 in test [8] was 1320 nM.

`Nc1cc(Cl)ccc1/C(=N/Nc1nc(-c2cc3ccccc3oc2=O)cs1)c1ccccc1`: the results for the IC50 in test [9] and in test [10] were 110 nM and 459 nM, respectively.

Consider `CCCCNCn1nc(-c2cc3ccccc3oc2=O)oc1=S`, for which the IC50 in test [9] came out at 310 nM; in [10] it was 3360 nM.

For `O=C(O)[C@H]1C[C@@H]1CCC12CCC(c3cccc(Oc4ccccc4)c3)(CC1)O2`, the EC50 in [11] worked out at 220 nM. Further, the Activity in test [12] was found to be 60%.

With `Cc1ccc(-c2nnc(-c3cccc(NC(=O)CCCCc4nnn[nH]4)c3)o2)cc1`, in test [13], the inhibition was determined as 42%. Also, the IC50 in [14] worked out at 167000 nM.

The values above are taken from ChEMBL document CHEMBL5244211, “Current anti-diabetic agents and their molecular targets: A review” (Eur J Med Chem, 2018).
